Literature values, collected in patent publication US20140018251A1, “Methods for Predicting Response to Anti-Cancer Therapy in Cancer Patients” (Stichting Het Nederlands Kanker Instituut, priority 2010, published 2014).

Test system: mouse mammary tumors lacking BRCA1

N.N.[Cl][Pt][Cl] [cisplatin]
sensitivity of tumors: extremely sensitive
